Assay results as given in PubChem BioAssay (NCI).
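Grown in 96-well plates, cells were treated for 48 hours with each compound at five concentrations. Insufficient inhibition: endpoint recorded as highest concentration tested. At the GI50, growth is halved. TGI: total growth inhibition.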

How the values were obtained:
Assay in all cases: inhibition of tumour cell growth, NCI panel, 48 h
EKVX NSCLC = system: EKVX NSCLC
HCC-2998 colon = system: HCC-2998 colon
LOX IMVI melanoma = system: LOX IMVI melanoma
NCI-H522 lung = system: NCI-H522 lung
RXF 393 renal = system: RXF 393 renal
SF-268 CNS = system: SF-268 CNS
SK-MEL-2 melanoma = system: SK-MEL-2 melanoma
SNB-75 CNS = system: SNB-75 CNS

SMILES | GI50 (EKVX NSCLC) [µM] | TGI (EKVX NSCLC) [µM] | GI50 (HCC-2998 colon) [µM] | TGI (HCC-2998 colon) [µM] | GI50 (LOX IMVI melanoma) [µM] | TGI (LOX IMVI melanoma) [µM] | GI50 (NCI-H522 lung) [µM] | TGI (NCI-H522 lung) [µM] | GI50 (RXF 393 renal) [µM] | TGI (RXF 393 renal) [µM] | GI50 (SF-268 CNS) [µM] | TGI (SF-268 CNS) [µM] | GI50 (SK-MEL-2 melanoma) [µM] | TGI (SK-MEL-2 melanoma) [µM] | GI50 (SNB-75 CNS) [µM] | TGI (SNB-75 CNS) [µM]
C=C1C(=O)O[C@H]2[C@H]1CC/C(COC(=O)C(=O)c1c[nH]c3ccc(Cl)cc13)=C\CC[C@@]1(C)O[C@@H]21 | 2.06 | 5.03 | 1.8 | 3.36 | 0.183 | 0.396 | 1.53 | 3.24 | 1.4 | 2.79 | 1.73 | 3.97 | 1.94 | 4.23 | 1.48 | 3.87
COC(=O)C1=CO[C@@H](OC2OC(CO)C(O)C(O)C2O)[C@@H]2[C@H](C)[C@@H](O)[C@@H](O)[C@]12O (some centres not stated) | – | > 100 | – | > 100 | – | > 100 | – | > 100 | – | > 100 | – | > 100 | – | > 100 | – | > 100
C=C1[C@@H](O)C[C@H]2C(C)(C)C[C@H](Cl)C[C@]2(C)[C@H]1C[C@H](O)[C@H]1CC(=O)NC1=O | 0.0157 | 0.128 | 0.0173 | 0.117 | < 0.0445 | 0.442 | < 0.01 | 0.0293 | 0.0132 | 0.0722 | 0.0179 | 0.526 | < 0.0111 | 0.0469 | 0.0287 | 0.706
CCCC(=O)O[C@]1(C)CC[C@@H]2[C@H]3[C@@H]1[C@@H]1C/C(C)=C\CC[C@](C)(OC(=O)[C@@H]2C)[C@H]3O1 | 68.3 | > 100 | 21.7 | 82.9 | 24.6 | 59.9 | 19.6 | 75.5 | > 100 | > 100 | 47.8 | > 100 | 49.5 | > 100 | > 100 | > 100
COc1cc2c(c(OC)c1OC)C(=O)c1c-2n(CCCN=[N+]=[N-])c(=O)c2cc([N+](=O)[O-])ccc12 | > 100 | > 100 | > 100 | > 100 | > 100 | > 100 | 16.9 | 79.3 | 19.1 | 66.1 | 29.8 | > 100 | 22.8 | 70.7 | 19.4 | 54.9
CNC12C3C4C1C1C2C3C41C(=O)N[C@H](C(=O)N(C)[C@H](C[C@@H](OC(C)=O)c1nc(C(=O)N[C@@H](Cc2ccccc2)C[C@H](C)C(=O)OC)cs1)C(C)C)C1CC1 (some centres not stated) | 1.95 | > 15 | 0.319 | 2.67 | 0.234 | > 15 | 0.041 | 0.524 | 0.213 | 1.33 | 0.354 | > 10.6 | 0.189 | – | 0.129 | 2.73
Clc1ccc(-c2nc(C(Cl)Cl)nc3cc(-c4ccccc4)nn23)cc1 | – | – | 0.741 | 1.42 | > 50 | > 50 | 1.52 | > 50 | 0.813 | 1.87 | 1.7 | > 50 | > 50 | > 50 | 0.957 | > 50
Cc1ccc(N(/C=C/C(=O)C(F)(F)F)CC(=O)c2ccc(Cl)c(Cl)c2)cc1 | 3.54 | 18.9 | 1.45 | 14.8 | 10.1 | 21.8 | 5.16 | 17.8 | 3.82 | 19 | 12.5 | 25 | 3.26 | 16.1 | 1.67 | 16.4
Cn1ccc2c3c(=O)cc[nH]c3ccc21 | > 100 | > 100 | > 100 | > 100 | > 100 | > 100 | > 100 | > 100 | > 100 | > 100 | > 100 | > 100 | > 100 | > 100 | > 100 | > 100
COc1ccc2c(c1)C(=O)c1c-2n(CCCN=[N+]=[N-])c(=O)c2cc(N)ccc12 | > 100 | > 100 | > 100 | > 100 | > 100 | > 100 | > 100 | > 100 | 57.6 | > 100 | > 100 | > 100 | > 100 | > 100 | – | > 100
Cc1ccc(S(=O)(=O)N[C@@H](Cc2ccccc2)C(=O)CCl)cc1 | – | 36 | 1.03 | 21.8 | 2.31 | 10.4 | 11.5 | 37.1 | 14.6 | 37.2 | – | 43.6 | 15 | 35.8 | 16.7 | 35.8
